Experimental data published in patent US11053204B2, “Pyrimidinyloxy benzene derivatives as herbicides” (FMC Corporation, priority 2015, dated 2021).

Experiments:
Assay type in all cases: in vivo
[1] = test system: barnyardgrass (Echinochloa crus-galli); assay: Test B flooded paddy test, plant response rating; details: 250 g ai/ha; Flood; scale of 0 to 100 where 0 is no effect and 100 is complete control; 13 to 15 days
How it was run: (§1)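 Under a constant 3 cm flood, test compounds went directly into the paddy water. Following 13 to 15 days of greenhouse growth, treated species and controls were compared by eye.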

[2] = test system: ducksalad (Heteranthera limosa); assay: Test B flooded paddy test, plant response rating; details: 250 g ai/ha; Flood; scale of 0 to 100 where 0 is no effect and 100 is complete control; 13 to 15 days
How it was run: as §1

[3] = test system: rice (Oryza sativa); assay: Test B flooded paddy test, plant response rating; details: 250 g ai/ha; Flood; scale of 0 to 100 where 0 is no effect and 100 is complete control; 13 to 15 days
How it was run: as §1

[4] = test system: sedge, umbrella (small-flower umbrella sedge, Cyperus difformis); assay: Test B flooded paddy test, plant response rating; details: 250 g ai/ha; Flood; scale of 0 to 100 where 0 is no effect and 100 is complete control; 13 to 15 days
How it was run: as §1

[5] = test system: blackgrass (Alopecurus myosuroides); assay: Test C preemergence, plant response rating; details: Preemergence
How it was run: (§2)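 Both timings shared one formulation, a non-phytotoxic solvent mixture with surfactant, and a greenhouse period of 13 to 15 d. Preemergence used seeded loam/sand or silt loam soil, postemergence used 2 to 18 cm plants; visual ratings ran from 0 (no effect) to 100 (complete control).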

[6] = test system: corn (Zea mays); assay: Test C preemergence, plant response rating; details: Preemergence
How it was run: as §2

[7] = test system: crabgrass, large (large crabgrass, Digitaria sanguinalis); assay: Test C preemergence, plant response rating; details: Preemergence
How it was run: as §2

[8] = test system: foxtail, giant (giant foxtail, Setaria faberii); assay: Test C preemergence, plant response rating; details: Preemergence
How it was run: as §2

[9] = test system: lambsquarters (Chenopodium album); assay: Test C preemergence, plant response rating; details: Preemergence
How it was run: as §2

[10] = test system: morningglory (Ipomoea coccinea); assay: Test C preemergence, plant response rating; details: Preemergence
How it was run: as §2

[11] = test system: nutsedge, yellow (yellow nutsedge, Cyperus esculentus); assay: Test C preemergence, plant response rating; details: Preemergence
How it was run: as §2

[12] = test system: oilseed rape (Brassica napus); assay: Test C preemergence, plant response rating; details: Preemergence
How it was run: as §2

[13] = test system: ragweed (common ragweed, Ambrosia elatior); assay: Test C preemergence, plant response rating; details: Preemergence
How it was run: as §2

[14] = test system: ryegrass, Italian (Italian ryegrass, Lolium multiflorum); assay: Test C preemergence, plant response rating; details: Preemergence
How it was run: as §2

[15] = test system: soybean (Glycine max); assay: Test C preemergence, plant response rating; details: Preemergence
How it was run: as §2

[16] = test system: velvetleaf (Abutilon theophrasti); assay: Test C preemergence, plant response rating; details: Preemergence
How it was run: as §2

[17] = test system: waterhemp (common waterhemp, Amaranthus rudis); assay: Test C preemergence, plant response rating; details: Preemergence
How it was run: as §2

[18] = test system: wheat (winter wheat, Triticum aestivum); assay: Test C preemergence, plant response rating; details: Preemergence
How it was run: as §2

[19] = test system: chickweed (common chickweed, Stellaria media); assay: Test C postemergence, plant response rating; details: for Chickweed plant response rating: scale 0 to 100 (0 no effect, 100 complete control)
How it was run: as §2

[20] = test system: foxtail, giant (giant foxtail, Setaria faberii); assay: Test C postemergence, plant response rating; details: for Foxtail, Giant plant response rating: scale 0 to 100 (0 no effect, 100 complete control)
How it was run: as §2

[21] = test system: morningglory (Ipomoea coccinea); assay: Test C postemergence, plant response rating; details: for Morningglory plant response rating: scale 0 to 100 (0 no effect, 100 complete control)
How it was run: as §2

For FC(F)(F)CCCCc1c(Br)cccc1Oc1ncc(Cl)cn1 [Compound 138], the “Plant response rating, Barnyardgrass” value [1] was 50, the “Plant response rating, Ducksalad” value [2] was 100 and the “Plant response rating, Rice” value [3] was 45. The “Plant response rating, Sedge, Umbrella” value [4] was 85, the “Plant response rating, Blackgrass” value ([5]; 125 g ai/ha, scale of 0 to 100) was 90 and the “Plant response rating, Blackgrass” value ([5]; 16 g ai/ha, scale 0 to 100) was 10. For the same molecule, the “Plant response rating, Blackgrass” value ([5]; 31 g ai/ha, scale 0 to 100) was 50, the “Plant response rating, Blackgrass” value ([5]; 62 g ai/ha, scale 0 to 100) was 80 and the “Plant response rating, Corn” value ([6]; 125 g ai/ha, scale of 0 to 100) was 5. For the same molecule, the “Plant response rating, Corn” value ([6]; 16 g ai/ha, scale 0 to 100) was 0, the “Plant response rating, Corn” value ([6]; 31 g ai/ha, scale 0 to 100) was 0 and the “Plant response rating, Corn” value ([6]; 62 g ai/ha, scale 0 to 100) was 5. For the same molecule, the “Plant response rating, Crabgrass, Large” value ([7]; 125 g ai/ha, scale of 0 to 100) was 98, the “Plant response rating, Crabgrass, Large” value ([7]; 16 g ai/ha, scale 0 to 100) was 75 and the “Plant response rating, Crabgrass, Large” value ([7]; 31 g ai/ha, scale 0 to 100) was 95. The “Plant response rating, Crabgrass, Large” value ([7]; 62 g ai/ha, scale 0 to 100) was 98, the “Plant response rating, Foxtail, Giant” value ([8]; 125 g ai/ha, scale of 0 to 100) was 100 and the “Plant response rating, Foxtail, Giant” value ([8]; 31 g ai/ha, scale 0 to 100) was 80. The “Plant response rating, Foxtail, Giant” value ([8]; 62 g ai/ha, scale 0 to 100) was 85, the “Plant response rating, Lambsquarters” value ([9]; 125 g ai/ha, scale of 0 to 100) was 70 and the “Plant response rating, Lambsquarters” value ([9]; 31 g ai/ha, scale 0 to 100) was 35. For the same molecule, the “Plant response rating, Lambsquarters” value ([9]; 62 g ai/ha, scale 0 to 100) was 25, the “Plant response rating, Morningglory” value ([10]; 125 g ai/ha, scale of 0 to 100) was 10 and the “Plant response rating, Morningglory” value ([10]; 31 g ai/ha, scale 0 to 100) was 0. The “Plant response rating, Morningglory” value ([10]; 62 g ai/ha, scale 0 to 100) was 0, the “Plant response rating, Nutsedge, Yellow” value ([11]; 125 g ai/ha, scale of 0 to 100) was 0 and the “Plant response rating, Nutsedge, Yellow” value ([11]; 31 g ai/ha, scale 0 to 100) was 0. The “Plant response rating, Nutsedge, Yellow” value ([11]; 62 g ai/ha, scale 0 to 100) was 0, the “Plant response rating, Oilseed Rape” value ([12]; 125 g ai/ha, scale of 0 to 100) was 20 and the “Plant response rating, Oilseed Rape” value ([12]; 31 g ai/ha, scale 0 to 100) was 0. The “Plant response rating, Oilseed Rape” value ([12]; 62 g ai/ha, scale 0 to 100) was 5, the “Plant response rating, Ragweed” value ([13]; 125 g ai/ha, scale of 0 to 100) was 10 and the “Plant response rating, Ragweed” value ([13]; 31 g ai/ha, scale 0 to 100) was 0. The “Plant response rating, Ragweed” value ([13]; 62 g ai/ha, scale 0 to 100) was 0, the “Plant response rating, Ryegrass, Italian” value ([14]; 125 g ai/ha, scale of 0 to 100) was 80 and the “Plant response rating, Ryegrass, Italian” value ([14]; 31 g ai/ha, scale 0 to 100) was 10. The “Plant response rating, Ryegrass, Italian” value ([14]; 62 g ai/ha, scale 0 to 100) was 20, the “Plant response rating, Soybean” value ([15]; 125 g ai/ha, scale of 0 to 100) was 5 and the “Plant response rating, Soybean” value ([15]; 31 g ai/ha, scale 0 to 100) was 0. The “Plant response rating, Soybean” value ([15]; 62 g ai/ha, scale 0 to 100) was 0, the “Plant response rating, Velvetleaf” value ([16]; 125 g ai/ha, scale of 0 to 100) was 50 and the “Plant response rating, Velvetleaf” value ([16]; 31 g ai/ha, scale 0 to 100) was 25. The “Plant response rating, Velvetleaf” value ([16]; 62 g ai/ha, scale 0 to 100) was 20, the “Plant response rating, Waterhemp” value ([17]; 125 g ai/ha, scale of 0 to 100) was 98 and the “Plant response rating, Waterhemp” value ([17]; 31 g ai/ha, scale 0 to 100) was 85. The “Plant response rating, Waterhemp” value ([17]; 62 g ai/ha, scale 0 to 100) was 100, the “Plant response rating, Wheat” value ([18]; 125 g ai/ha, scale of 0 to 100) was 10 and the “Plant response rating, Wheat” value ([18]; 31 g ai/ha, scale 0 to 100) was 5. The “Plant response rating, Wheat” value ([18]; 62 g ai/ha, scale 0 to 100) was 5, the “Plant response rating, Chickweed” value ([19]; 16 g ai/ha, scale of 0 to 100) was 75 and the “Plant response rating, Chickweed” value ([19]; 31 g ai/ha, scale 0 to 100) was 85. The “Chickweed plant response rating” value ([19]; 62 g ai/ha) was 100, the “Chickweed plant response rating” value ([19]; 125 g ai/ha) was 100 and the “Plant response rating, Foxtail, Giant” value ([20]; 16 g ai/ha, scale of 0 to 100) was 10. The “Plant response rating, Foxtail, Giant” value ([20]; 31 g ai/ha, scale 0 to 100) was 20, the “Foxtail, Giant plant response rating” value ([20]; 62 g ai/ha) was 30 and the “Foxtail, Giant plant response rating” value ([20]; 125 g ai/ha) was 65. For the same molecule, the “Plant response rating, Morningglory” value ([21]; 16 g ai/ha, scale of 0 to 100) was 10, the “Plant response rating, Morningglory” value ([21]; 31 g ai/ha, scale 0 to 100) was 55 and the “Morningglory plant response rating” value ([21]; 62 g ai/ha) was 65. The “Morningglory plant response rating” value ([21]; 125 g ai/ha) was 65.
